Measurements from patent US12594276B2, “Inhibitors of human immunodeficiency virus replication” (ViiV Healthcare UK (No.5) Limited, priority 2024, dated 2026).
pEC50: −log10 of the molar value.

What was measured:
[1] = system: recombinant NL4-3 virus (nef section replaced with Renilla luciferase gene) in MT-2 cells; assay: HIV cell culture assay (antiviral activity, luciferase readout); assay type: cell-based; conditions: Renilla, NL43, MT-2 cells infected for 4-5 days with recombinant NL4-3 Renilla luciferase virus
How it was run: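 Read-out: Renilla luciferase (live-cell substrate) in infected MT-2 cells after 4-5 d with serial compound dilutions. Virus from 293T transfection of the proviral clone, titered by luciferase in MT-2. EC50 via median effect equation fit.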

[2] = Compound cytotoxicity, XTT-based colorimetric assay; assay type: cell-based; conditions: human; uninfected MT2 cells, day 4, XTT; read-out: CC50
How it was run: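 Follows the antiviral assay procedure, but with uninfected MT2 cells. On day 4, cell viability is measured by XTT-based colorimetry, giving CC50 values.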

Structure (SMILES)	pEC50 [1]	CC50 at 4 days [2]
CS(=O)(=O)Nc1nn(CCN2CCC(C(F)(F)F)C2)c2c(-n3c([C@H](Cc4cc(F)cc(F)c4)NC(=O)Cn4nc(C(F)F)c5c4C(F)(F)[C@@H]4C[C@H]54)nc4nc(C5CCC(F)(F)CC5)ccc4c3=O)ccc(Cl)c12 (stereo partly drawn) [Example 199, N-[(1S)-1-[(3P)-3-(4-chloro-3-methanesulfonamido-1-{2-[3-(trifluoromethyl)pyrrolidin-1-yl]ethyl}-1H-indazol-7-yl)-7-(4,4-difluorocyclohexyl)-4-oxo-3H,4H-pyrido[2,3-d]pyrimidin-2-yl]-2-(3,5-difluorophenyl)ethyl]-2-[(2S,4R)-9-(difluoromethyl)-5,5-difluoro-7,8-diazatricyclo[4.3.0.0^2,^4]nona-1(6),8-dien-7-yl]acetamide]	10.64	> 50 nM
CC1(F)CCN(CCn2nc(NS(C)(=O)=O)c3c(Cl)ccc(-n4c([C@H](Cc5cc(F)cc(F)c5)NC(=O)Cn5nc(C(F)F)c6c5C(F)(F)[C@@H]5C[C@H]65)nc5nc(C6CCC(F)(F)CC6)ccc5c4=O)c32)C1 (stereo partly drawn) [Example 211, N-[(1S)-1-[(3P)-3-{4-chloro-1-[2-(3-fluoro-3-methylpyrrolidin-1-yl)ethyl]-3-methanesulfonamido-1H-indazol-7-yl}-7-(4,4-difluorocyclohexyl)-4-oxo-3H,4H-pyrido[2,3-d]pyrimidin-2-yl]-2-(3,5-difluorophenyl)ethyl]-2-[(2S,4R)-9-(difluoromethyl)-5,5-difluoro-7,8-diazatricyclo[4.3.0.0^2,^4]nona-1(6),8-dien-7-yl]acetamide]	10.92	> 50 nM
CS(=O)(=O)Nc1nn(CCN2CC3C(C2)C(F)(F)C3(F)F)c2c(-n3c([C@H](Cc4cc(F)cc(F)c4)NC(=O)Cn4nc(C(F)F)c5c4C(F)(F)[C@@H]4C[C@H]54)nc4nc(C5CCC(F)(F)CC5)ccc4c3=O)ccc(Cl)c12 (stereo partly drawn) [Example 214, N-[(1S)-1-[(3P)-3-[4-chloro-3-methanesulfonamido-1-(2-{6,6,7,7-tetrafluoro-3-azabicyclo[3.2.0]heptan-3-yl}ethyl)-1H-indazol-7-yl]-7-(4,4-difluorocyclohexyl)-4-oxo-3H,4H-pyrido[2,3-d]pyrimidin-2-yl]-2-(3,5-difluorophenyl)ethyl]-2-[(2S,4R)-9-(difluoromethyl)-5,5-difluoro-7,8-diazatricyclo[4.3.0.0^2,^4]nona-1(6),8-dien-7-yl]acetamide]	10.82	> 50 nM
CS(=O)(=O)Nc1nn(CCN2CCOCC2)c2c(-n3c([C@H](Cc4cc(F)cc(F)c4)NC(=O)Cn4nc(C5CC5)c5c4C[C@@H]4C[C@H]54)nc4nc(C5CCC(F)(F)CC5)cc(C(F)F)c4c3=O)ccc(Cl)c12 [Example 227, N-[(1S)-1-[(3P)-3-{4-chloro-3-methanesulfonamido-1-[2-(morpholin-4-yl)ethyl]-1H-indazol-7-yl}-7-(4,4-difluorocyclohexyl)-5-(difluoromethyl)-4-oxo-3H,4H-pyrido[2,3-d]pyrimidin-2-yl]-2-(3,5-difluorophenyl)ethyl]-2-[(2S,4S)-9-cyclopropyl-7,8-diazatricyclo[4.3.0.0^2,^4]nona-1(6),8-dien-7-yl]acetamide]	10.80	> 50 nM
Cc1cc(C2CCC(F)(F)CC2)nc2nc([C@H](Cc3cc(F)cc(F)c3)NC(=O)Cn3nc(C4CC4)c4c3C[C@@H]3C[C@H]43)n(-c3ccc(Cl)c4c(NS(C)(=O)=O)nn(CCN5CCC(C)(F)C5)c34)c(=O)c12 (stereo partly drawn) [Example 280, N-[(1S)-1-[(3P)-3-{4-chloro-1-[2-(3-fluoro-3-methylpyrrolidin-1-yl)ethyl]-3-methanesulfonamido-1H-indazol-7-yl}-7-(4,4-difluorocyclohexyl)-5-methyl-4-oxo-3H,4H-pyrido[2,3-d]pyrimidin-2-yl]-2-(3,5-difluorophenyl)ethyl]-2-[(2S,4S)-9-cyclopropyl-7,8-diazatricyclo[4.3.0.0^2,^4]nona-1(6),8-dien-7-yl]acetamide]	11.22	> 50 nM
